Assays:
human NK1 receptor = biological target: T1, human NK1 receptor (Homo sapiens, UniProt P25103); assay: NK1 receptor binding assay, [3H]substance P displacement; conditions: human NK1 receptors in CHO cells, [3H]substance P 0.6 nM
T1 construct: expressed in transfected cells; host or cells: CHO cells (Semliki virus expression system), membrane suspension

[1] = biological target: T2, Recombinant human NK3 (hNK3) receptor (Homo sapiens, UniProt P29371); assay: NK3 receptor binding assay, [3H]SR142801 displacement; conditions: hNK3 receptor membranes, [3H]SR142801 0.3 nM
T2 construct: expressed in transfected cells; membrane preparations of the recombinant receptor
T2 sequence (P29371 1-465): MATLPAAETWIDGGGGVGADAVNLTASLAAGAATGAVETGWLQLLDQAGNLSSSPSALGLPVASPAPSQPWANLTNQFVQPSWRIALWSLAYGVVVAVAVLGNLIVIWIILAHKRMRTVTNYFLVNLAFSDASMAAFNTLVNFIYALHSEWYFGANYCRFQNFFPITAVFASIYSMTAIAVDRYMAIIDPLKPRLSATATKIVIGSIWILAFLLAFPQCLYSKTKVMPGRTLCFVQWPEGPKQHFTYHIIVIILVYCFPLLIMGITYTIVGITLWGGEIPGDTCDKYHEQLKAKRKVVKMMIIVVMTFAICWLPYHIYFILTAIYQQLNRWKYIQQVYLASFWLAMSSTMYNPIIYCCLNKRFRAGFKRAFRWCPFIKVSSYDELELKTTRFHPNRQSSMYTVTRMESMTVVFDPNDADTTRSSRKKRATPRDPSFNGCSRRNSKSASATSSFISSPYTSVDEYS
Protocol: Recombinant human NK3 (hNK3) receptor affinity was determined in a 96 well plate assay, using [^3H]SR142801 (final concentration 0.3 nM) to radiolabel the hNK3 receptor in the presence of 10 concentrations of competing compound or buffer. Non specific binding was determined using 10 μM SB222200. Assay buffer consisted of Tris-HCl (50 mM, pH 7.4), BSA (0.1%), MnCl2 (4 mM) and phosphoramidon (1 μM). Membrane preparations of hNK3 receptors (approximately 2.5 μg/well in a 96 well plate) were used to initiate the incubation for 90 min at room temperature. This assay was terminated by rapid filtration under vacuum through GF/C filters, presoaked for 90 min with PEI (0.3%), with 3×0.5 ml washes of ice-cold Tris buffer (50 mM, pH 7.4) containing 0.1% BSA. The radioactivity retained on the filters was measured by scintillation counting. All assays were performed in duplicate in at least two separate experiments.

T1 sequence (P25103 whole entry): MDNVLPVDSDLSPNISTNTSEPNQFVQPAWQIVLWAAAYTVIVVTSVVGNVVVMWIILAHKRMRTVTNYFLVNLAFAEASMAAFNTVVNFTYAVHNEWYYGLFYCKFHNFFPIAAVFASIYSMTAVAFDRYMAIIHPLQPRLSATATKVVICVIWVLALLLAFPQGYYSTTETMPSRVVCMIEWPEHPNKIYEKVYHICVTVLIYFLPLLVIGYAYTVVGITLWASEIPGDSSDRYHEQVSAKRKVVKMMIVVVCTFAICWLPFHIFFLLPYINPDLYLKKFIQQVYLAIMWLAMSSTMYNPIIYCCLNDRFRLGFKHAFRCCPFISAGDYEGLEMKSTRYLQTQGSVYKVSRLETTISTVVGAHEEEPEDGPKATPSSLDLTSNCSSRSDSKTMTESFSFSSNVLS

| Compound | Ki (human NK1 receptor) [nM] | Ki [1] [nM] |
| --- | --- | --- |
| CCn1ncc2c(-c3ccccc3C)c(N(C)C(=O)C(C)(C)c3cc(C(F)(F)F)cc(C(F)(F)F)c3)cnc21 [Example 1, 2-(3,5-Bis-trifluoromethyl-phenyl)-N-(1-ethyl-4-o-tolyl-1H-pyrazolo[3,4-b]pyridin-5-yl)-N-methyl-isobutyramide] | 1.2 | 32.7 |
| CCn1ncc2c(-c3ccc(F)cc3C)c(N(C)C(=O)C(C)(C)c3cc(C(F)(F)F)cc(C(F)(F)F)c3)cnc21 [Example 2, 2-(3,5-Bis-trifluoromethyl-phenyl)-N-[1-ethyl-4-(4-fluoro-2-methyl-phenyl)-1H-pyrazolo[3,4-b]pyridin-5-yl]-N-methyl-isobutyramide] | 1.1 | 25.7 |
| CCn1ncc2c(-c3ccccc3Cl)c(N(C)C(=O)C(C)(C)c3cc(C(F)(F)F)cc(C(F)(F)F)c3)cnc21 [Example 3, 2-(3,5-Bis-trifluoromethyl-phenyl)-N-[4-(2-chloro-phenyl)-1-ethyl-1H-pyrazolo[3,4-b]pyridin-5-yl]-N-methyl-isobutyramide] | 0.6 | 22.9 |
| CCn1ncc2c(-c3ccc(Cl)c(Cl)c3)c(N(C)C(=O)C(C)(C)c3cc(C(F)(F)F)cc(C(F)(F)F)c3)cnc21 [Example 4, 2-(3,5-Bis-trifluoromethyl-phenyl)-N-[4-(3,4-dichloro-phenyl)-1-ethyl-1H-pyrazolo[3,4-b]pyridin-5-yl]-N-methyl-isobutyramide] | 0.4 | 86.8 |
| CCn1ncc2c(-c3ccc(F)cc3C)c(NC(=O)C(C)(C)c3cc(C(F)(F)F)cc(C(F)(F)F)c3)cnc21 [Example 5, 2-(3,5-Bis-trifluoromethyl-phenyl)-N-[1-ethyl-4-(4-fluoro-2-methyl-phenyl)-1H-pyrazolo[3,4-b]pyridin-5-yl]-isobutyramide] | 6 | 200 |
| Cc1cc(F)ccc1-c1c(N(C)C(=O)C(C)(C)c2cc(C(F)(F)F)cc(C(F)(F)F)c2)cnc2c1cnn2CC(F)F [Example 6, 2-(3,5-Bis-trifluoromethyl-phenyl)-N-[1-(2,2-difluoro-ethyl)-4-(4-fluoro-2-methyl-phenyl)-1H-pyrazolo[3,4-b]pyridin-5-yl]-N-methyl-isobutyramide] | 0.9 | 6.8 |
| Cc1cc(F)ccc1-c1c(N(C)C(=O)C(C)(C)c2cc(C(F)(F)F)cc(C(F)(F)F)c2)cnc2c1cnn2C [Example 7, 2-(3,5-Bis-trifluoromethyl-phenyl)-N-[4-(4-fluoro-2-methyl-phenyl)-1-methyl-1H-pyrazolo[3,4-b]pyridin-5-yl]-N-methyl-isobutyramide] | 0.8 | 18.9 |
| CCn1ncc2c(-c3ccc(F)cc3F)c(N(C)C(=O)C(C)(C)c3cc(C(F)(F)F)cc(C(F)(F)F)c3)cnc21 [Example 8, 2-(3,5-Bis-trifluoromethyl-phenyl)-N-[4-(2,4-difluoro-phenyl)-1-ethyl-1H-pyrazolo[3,4-b]pyridin-5-yl]-N-methyl-isobutyramide] | 1.7 | 483 |
| CCn1ncc2c(-c3cccc(F)c3F)c(N(C)C(=O)C(C)(C)c3cc(C(F)(F)F)cc(C(F)(F)F)c3)cnc21 [Example 9, 22-(3,5-Bis-trifluoromethyl-phenyl)-N-[4-(2,3-difluoro-phenyl)-1-ethyl-1H-pyrazolo[3,4-b]pyridin-5-yl]-N-methyl-isobutyramide] | 10.2 | 779 |
| CCn1ncc2c(-c3ccccc3)c(N(C)C(=O)C(C)(C)c3cc(C(F)(F)F)cc(C(F)(F)F)c3)cnc21 [Example 10, 2-(3,5-Bis-trifluoromethyl-phenyl)-N-(1-ethyl-4-phenyl-1H-pyrazolo[3,4-b]pyridin-5-yl)-N-methyl-isobutyramide] | 2.5 | 532 |
| Cc1cc(F)ccc1-c1c(N(C)C(=O)C(C)(C)c2cc(C(F)(F)F)cc(C(F)(F)F)c2)cnc2c1cnn2Cc1ccccc1 [Example 11, N-[1-Benzyl-4-(4-fluoro-2-methyl-phenyl)-1H-pyrazolo[3,4-b]pyridin-5-yl]-2-(3,5-bis-trifluoromethyl-phenyl)-N-methyl-isobutyramide] | 1.3 | 77 |
| CCn1ncc2c(-c3ccc(F)cc3OC)c(N(C)C(=O)C(C)(C)c3cc(C(F)(F)F)cc(C(F)(F)F)c3)cnc21 [Example 12, 2-(3,5-Bis-trifluoromethyl-phenyl)-N-[1-ethyl-4-(4-fluoro-2-methoxy-phenyl)-1H-pyrazolo[3,4-b]pyridin-5-yl]-N-methyl-isobutyramide] | 0.7 | 41.4 |
| CCn1ncc2c(-c3cc(F)ccc3C)c(N(C)C(=O)C(C)(C)c3cc(C(F)(F)F)cc(C(F)(F)F)c3)cnc21 [Example 13, 2-(3,5-Bis-trifluoromethyl-phenyl)-N-[1-ethyl-4-(5-fluoro-2-methyl-phenyl)-1H-pyrazolo[3,4-b]pyridin-5-yl]-N-methyl-isobutyramide] | 7.9 | 160 |
| CCn1ncc2c(-c3cccc(F)c3Cl)c(N(C)C(=O)C(C)(C)c3cc(C(F)(F)F)cc(C(F)(F)F)c3)cnc21 [Example 14, 2-(3,5-Bis-trifluoromethyl-phenyl)-N-[4-(2-chloro-3-fluoro-phenyl)-1-ethyl-1H-pyrazolo[3,4-b]pyridin-5-yl]-N-methyl-isobutyramide] | 1.6 | 38.7 |
| CCn1ncc2c(-c3ccccc3OC)c(N(C)C(=O)C(C)(C)c3cc(C(F)(F)F)cc(C(F)(F)F)c3)cnc21 [Example 15, 2-(3,5-Bis-trifluoromethyl-phenyl)-N-[1-ethyl-4-(2-methoxy-phenyl)-1H-pyrazolo[3,4-b]pyridin-5-yl]-N-methyl-isobutyramide] | 0.7 | 208 |
| CCn1ncc2c(-c3ccc(OC)cc3C)c(N(C)C(=O)C(C)(C)c3cc(C(F)(F)F)cc(C(F)(F)F)c3)cnc21 [Example 16, 2-(3,5-Bis-trifluoromethyl-phenyl)-N-[1-ethyl-4-(4-methoxy-2-methyl-phenyl)-1H-pyrazolo[3,4-b]pyridin-5-yl]-N-methyl-isobutyramide] | 8.6 | 373 |
| CCn1ncc2c(-c3cccc(Cl)c3)c(N(C)C(=O)C(C)(C)c3cc(C(F)(F)F)cc(C(F)(F)F)c3)cnc21 [Example 17, 2-(3,5-Bis-trifluoromethyl-phenyl)-N-[4-(3-chloro-phenyl)-1-ethyl-1H-pyrazolo[3,4-b]pyridin-5-yl]-N-methyl-isobutyramide] | 4.2 | 355 |
| CCn1ncc2c(-c3cccc(Cl)c3Cl)c(N(C)C(=O)C(C)(C)c3cc(C(F)(F)F)cc(C(F)(F)F)c3)cnc21 [Example 18, 2-(3,5-Bis-trifluoromethyl-phenyl)-N-[4-(2,3-dichloro-phenyl)-1-ethyl-1H-pyrazolo[3,4-b]pyridin-5-yl]-N-methyl-isobutyramide] | – | 45.3 |
| CCn1ncc2c(-c3ccc(F)cc3Cl)c(N(C)C(=O)C(C)(C)c3cc(C(F)(F)F)cc(C(F)(F)F)c3)cnc21 [Example 19, 2-(3,5-Bis-trifluoromethyl-phenyl)-N-[4-(2-chloro-4-fluoro-phenyl)-1-ethyl-1H-pyrazolo[3,4-b]pyridin-5-yl]-N-methyl-isobutyramide] | 0.3 | 13.8 |
| CCn1ncc2c(-c3ccccc3CO)c(N(C)C(=O)C(C)(C)c3cc(C(F)(F)F)cc(C(F)(F)F)c3)cnc21 [Example 20, 2-(3,5-Bis-trifluoromethyl-phenyl)-N-[1-ethyl-4-(2-hydroxymethyl-phenyl)-1H-pyrazolo[3,4-b]pyridin-5-yl]-N-methyl-isobutyramide] | 1.6 | 209 |
| CCn1ncc2c(-c3cccnc3C)c(N(C)C(=O)C(C)(C)c3cc(C(F)(F)F)cc(C(F)(F)F)c3)cnc21 [Example 25, 2-(3,5-Bis-trifluoromethyl-phenyl)-N-[1-ethyl-4-(2-methyl-pyridin-3-yl)-1H-pyrazolo[3,4-b]pyridin-5-yl]-N-methyl-isobutyramide] | 522 | – |
| Cc1cc(F)ccc1-c1c(N(C)C(=O)C(C)(C)c2cc(C(F)(F)F)cc(C(F)(F)F)c2)cnc2c1cnn2CC(=O)N1CCCC1 [Example 34, 2-(3,5-Bis-trifluoromethyl-phenyl)-N-[4-(4-fluoro-2-methyl-phenyl)-1-(2-oxo-2-pyrrolidin-1-yl-ethyl)-1H-pyrazolo[3,4-b]pyridin-5-yl]-N-methyl-isobutyramide] | – | 39.5 |
| Cc1cc(F)ccc1-c1c(N(C)C(=O)C(C)(C)c2cc(C(F)(F)F)cc(C(F)(F)F)c2)cnc2c1cnn2CC(=O)N(C)C [Example 35, 2-(3,5-Bis-trifluoromethyl-phenyl)-N-[1-dimethylcarbamoylmethyl-4-(4-fluoro-2-methyl-phenyl)-1H-pyrazolo[3,4-b]pyridin-5-yl]-N-methyl-isobutyramide] | – | 93.9 |

Source: patent US8487102B2, “Pyrrazolopyridine compounds as dual NK1/NK3 receptor antagonists” (Hoffmann-La Roche Inc., priority 2010, dated 2013)
